Reference: patent US8691829B2, “Treatment of liver disorders with PI3K inhibitors” (Gilead Calistoga LLC, priority 2009, dated 2014)

Experiments:
[1] = molecular target: PI3Kδ (Homo sapiens (Human), UniProt O00329); assay: Activity of selected PI3K inhibitors, Ki (PI3Kδ); assay type: biochemical
Text: (§1) The compounds of formula (3) are readily prepared from available starting material using methods that are known in the art. […] Scheme A in that application provides a route by which the thienopyrimidinone portions of compounds of formula (2a) can be prepared, and Schemes B-G provide routes by which the thienopyrimidinone portions of compounds of formula (2b) can be prepared. […] These references also provide methods for determining the activity of these compounds as inhibitors of PI3Kδ; thus those methods are known in the art.

[2] = molecular target: PI3Kα (Homo sapiens (Human), UniProt P42336); assay: Selectivity of selected PI3K inhibitors (α/δ); assay type: biochemical; conditions: ratio PI3Kα relative to PI3Kδ
PI3Kα, sequence (P42336 whole entry, species assumed): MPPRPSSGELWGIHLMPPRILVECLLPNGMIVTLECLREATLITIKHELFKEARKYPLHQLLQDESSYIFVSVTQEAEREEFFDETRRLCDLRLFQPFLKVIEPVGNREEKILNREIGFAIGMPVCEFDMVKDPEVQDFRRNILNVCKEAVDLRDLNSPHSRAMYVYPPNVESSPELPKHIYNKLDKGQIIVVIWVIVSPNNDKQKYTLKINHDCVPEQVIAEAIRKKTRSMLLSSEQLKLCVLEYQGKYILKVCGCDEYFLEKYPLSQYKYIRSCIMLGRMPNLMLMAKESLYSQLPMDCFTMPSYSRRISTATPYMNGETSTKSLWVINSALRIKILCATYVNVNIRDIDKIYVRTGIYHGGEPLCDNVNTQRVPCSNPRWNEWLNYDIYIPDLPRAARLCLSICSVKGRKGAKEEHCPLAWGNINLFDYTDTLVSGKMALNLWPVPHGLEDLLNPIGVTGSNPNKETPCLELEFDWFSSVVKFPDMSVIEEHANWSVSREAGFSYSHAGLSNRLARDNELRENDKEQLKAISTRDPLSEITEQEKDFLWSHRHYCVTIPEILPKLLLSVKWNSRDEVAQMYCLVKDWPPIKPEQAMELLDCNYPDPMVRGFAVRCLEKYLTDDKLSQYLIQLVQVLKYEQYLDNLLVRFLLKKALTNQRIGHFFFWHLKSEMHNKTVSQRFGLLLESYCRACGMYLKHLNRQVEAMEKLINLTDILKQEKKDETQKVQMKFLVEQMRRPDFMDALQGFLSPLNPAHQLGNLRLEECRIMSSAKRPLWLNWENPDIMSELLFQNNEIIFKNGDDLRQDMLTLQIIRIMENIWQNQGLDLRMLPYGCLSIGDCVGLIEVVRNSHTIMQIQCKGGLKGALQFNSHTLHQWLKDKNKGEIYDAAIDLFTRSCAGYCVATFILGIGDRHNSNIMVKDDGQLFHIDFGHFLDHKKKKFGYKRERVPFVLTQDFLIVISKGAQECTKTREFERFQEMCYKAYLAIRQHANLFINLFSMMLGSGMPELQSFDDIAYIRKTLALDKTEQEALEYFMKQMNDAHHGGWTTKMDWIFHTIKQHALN
PI3Kα, sequence (P27986 whole entry partner, species assumed): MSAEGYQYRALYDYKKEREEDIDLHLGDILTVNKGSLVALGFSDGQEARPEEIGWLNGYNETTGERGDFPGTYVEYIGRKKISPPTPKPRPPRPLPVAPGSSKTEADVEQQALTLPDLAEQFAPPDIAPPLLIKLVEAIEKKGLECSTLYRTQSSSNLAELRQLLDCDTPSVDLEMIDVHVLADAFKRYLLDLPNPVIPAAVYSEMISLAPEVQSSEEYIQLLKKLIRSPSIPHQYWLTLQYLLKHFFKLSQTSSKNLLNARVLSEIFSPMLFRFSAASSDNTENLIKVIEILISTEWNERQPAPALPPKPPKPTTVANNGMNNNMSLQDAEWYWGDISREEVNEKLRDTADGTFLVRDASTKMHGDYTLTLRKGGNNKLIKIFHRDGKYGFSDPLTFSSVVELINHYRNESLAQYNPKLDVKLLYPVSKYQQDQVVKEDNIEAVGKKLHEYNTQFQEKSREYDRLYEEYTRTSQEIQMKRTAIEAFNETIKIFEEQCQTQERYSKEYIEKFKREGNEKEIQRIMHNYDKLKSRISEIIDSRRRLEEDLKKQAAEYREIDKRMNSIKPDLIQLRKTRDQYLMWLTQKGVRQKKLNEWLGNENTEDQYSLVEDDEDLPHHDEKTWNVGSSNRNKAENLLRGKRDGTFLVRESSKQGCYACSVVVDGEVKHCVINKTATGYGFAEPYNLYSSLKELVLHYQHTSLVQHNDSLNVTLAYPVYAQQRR
Text: as §1

[3] = molecular target: PI3Kβ (Homo sapiens (Human), UniProt P42338); assay: Selectivity of selected PI3K inhibitors (β/δ); assay type: biochemical; conditions: ratio PI3Kβ relative to PI3Kδ
PI3Kβ, sequence (P42338 whole entry, species assumed): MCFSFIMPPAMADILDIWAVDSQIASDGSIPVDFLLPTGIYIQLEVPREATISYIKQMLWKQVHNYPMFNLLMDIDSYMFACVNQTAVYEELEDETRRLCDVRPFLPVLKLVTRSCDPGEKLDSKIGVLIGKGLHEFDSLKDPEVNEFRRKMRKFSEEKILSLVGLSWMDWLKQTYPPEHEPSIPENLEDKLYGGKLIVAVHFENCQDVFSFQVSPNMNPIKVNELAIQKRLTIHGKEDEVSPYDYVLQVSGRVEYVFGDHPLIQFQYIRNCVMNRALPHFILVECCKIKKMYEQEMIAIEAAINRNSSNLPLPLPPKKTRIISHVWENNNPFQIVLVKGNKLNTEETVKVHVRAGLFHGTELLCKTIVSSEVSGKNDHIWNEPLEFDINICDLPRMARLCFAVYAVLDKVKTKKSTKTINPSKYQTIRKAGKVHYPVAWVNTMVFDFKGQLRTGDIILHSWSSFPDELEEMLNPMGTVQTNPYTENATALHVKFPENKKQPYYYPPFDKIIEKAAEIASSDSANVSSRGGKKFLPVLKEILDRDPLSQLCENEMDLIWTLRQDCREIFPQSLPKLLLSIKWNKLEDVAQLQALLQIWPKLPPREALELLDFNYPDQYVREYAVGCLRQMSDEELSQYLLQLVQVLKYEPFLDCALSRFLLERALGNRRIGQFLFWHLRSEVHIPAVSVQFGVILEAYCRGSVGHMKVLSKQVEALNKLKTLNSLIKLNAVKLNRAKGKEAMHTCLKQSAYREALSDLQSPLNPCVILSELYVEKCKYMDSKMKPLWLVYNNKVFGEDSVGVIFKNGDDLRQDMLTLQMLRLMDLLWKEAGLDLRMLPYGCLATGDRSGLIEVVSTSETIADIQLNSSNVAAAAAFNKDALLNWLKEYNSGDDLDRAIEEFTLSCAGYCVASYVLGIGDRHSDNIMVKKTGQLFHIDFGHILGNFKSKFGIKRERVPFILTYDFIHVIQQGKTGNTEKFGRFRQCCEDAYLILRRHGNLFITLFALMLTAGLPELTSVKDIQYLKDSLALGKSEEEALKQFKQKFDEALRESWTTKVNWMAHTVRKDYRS
PI3Kβ, sequence (P27986 whole entry partner, species assumed): as the sequence (P27986 whole entry partner, species assumed) above
Text: as §1

[4] = molecular target: PI3Kγ (Homo sapiens (Human), UniProt P48736); assay: Selectivity of selected PI3K inhibitors (γ/δ); assay type: biochemical; conditions: ratio PI3Kγ relative to PI3Kδ
PI3Kγ, sequence (P48736 whole entry, species assumed): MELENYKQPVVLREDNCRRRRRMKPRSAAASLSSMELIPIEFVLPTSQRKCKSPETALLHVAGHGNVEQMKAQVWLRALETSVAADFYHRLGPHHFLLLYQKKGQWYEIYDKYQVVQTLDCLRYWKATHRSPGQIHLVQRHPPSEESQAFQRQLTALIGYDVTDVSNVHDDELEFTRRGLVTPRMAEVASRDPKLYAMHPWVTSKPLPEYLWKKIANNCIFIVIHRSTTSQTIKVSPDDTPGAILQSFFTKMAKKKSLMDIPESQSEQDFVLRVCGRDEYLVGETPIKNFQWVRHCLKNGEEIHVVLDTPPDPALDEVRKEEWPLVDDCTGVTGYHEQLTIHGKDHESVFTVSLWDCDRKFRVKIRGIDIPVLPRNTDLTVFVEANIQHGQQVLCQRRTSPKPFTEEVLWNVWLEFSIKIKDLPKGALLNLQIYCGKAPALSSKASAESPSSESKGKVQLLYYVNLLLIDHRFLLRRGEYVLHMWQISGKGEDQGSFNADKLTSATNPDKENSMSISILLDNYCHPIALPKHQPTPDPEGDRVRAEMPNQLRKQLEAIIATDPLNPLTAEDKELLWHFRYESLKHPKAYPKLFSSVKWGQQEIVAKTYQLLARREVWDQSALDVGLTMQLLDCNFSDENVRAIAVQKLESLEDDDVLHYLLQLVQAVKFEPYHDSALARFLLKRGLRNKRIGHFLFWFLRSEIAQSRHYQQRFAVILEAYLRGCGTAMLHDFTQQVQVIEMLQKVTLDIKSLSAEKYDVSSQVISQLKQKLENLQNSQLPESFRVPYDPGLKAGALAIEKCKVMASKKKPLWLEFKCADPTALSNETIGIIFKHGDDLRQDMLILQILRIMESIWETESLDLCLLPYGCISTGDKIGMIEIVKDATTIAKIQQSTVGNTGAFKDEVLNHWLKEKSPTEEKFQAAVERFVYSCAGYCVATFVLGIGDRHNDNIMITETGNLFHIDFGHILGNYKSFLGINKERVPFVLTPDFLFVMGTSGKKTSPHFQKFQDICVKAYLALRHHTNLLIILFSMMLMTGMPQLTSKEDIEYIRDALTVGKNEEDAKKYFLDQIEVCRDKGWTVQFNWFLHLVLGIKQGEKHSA
Text: as §1

[5] = tested on: hepatocytes; conditions: hepatocytes exposed to conditions that generate reactive oxygen species; Kohli et al. 2007; cited from earlier work
[6] = tested on: steatosis development; conditions: diet-induced p85 expression and steatosis; Kohli et al. 2007; cited from earlier work

PI3Kδ, sequence (O00329 whole entry, species assumed): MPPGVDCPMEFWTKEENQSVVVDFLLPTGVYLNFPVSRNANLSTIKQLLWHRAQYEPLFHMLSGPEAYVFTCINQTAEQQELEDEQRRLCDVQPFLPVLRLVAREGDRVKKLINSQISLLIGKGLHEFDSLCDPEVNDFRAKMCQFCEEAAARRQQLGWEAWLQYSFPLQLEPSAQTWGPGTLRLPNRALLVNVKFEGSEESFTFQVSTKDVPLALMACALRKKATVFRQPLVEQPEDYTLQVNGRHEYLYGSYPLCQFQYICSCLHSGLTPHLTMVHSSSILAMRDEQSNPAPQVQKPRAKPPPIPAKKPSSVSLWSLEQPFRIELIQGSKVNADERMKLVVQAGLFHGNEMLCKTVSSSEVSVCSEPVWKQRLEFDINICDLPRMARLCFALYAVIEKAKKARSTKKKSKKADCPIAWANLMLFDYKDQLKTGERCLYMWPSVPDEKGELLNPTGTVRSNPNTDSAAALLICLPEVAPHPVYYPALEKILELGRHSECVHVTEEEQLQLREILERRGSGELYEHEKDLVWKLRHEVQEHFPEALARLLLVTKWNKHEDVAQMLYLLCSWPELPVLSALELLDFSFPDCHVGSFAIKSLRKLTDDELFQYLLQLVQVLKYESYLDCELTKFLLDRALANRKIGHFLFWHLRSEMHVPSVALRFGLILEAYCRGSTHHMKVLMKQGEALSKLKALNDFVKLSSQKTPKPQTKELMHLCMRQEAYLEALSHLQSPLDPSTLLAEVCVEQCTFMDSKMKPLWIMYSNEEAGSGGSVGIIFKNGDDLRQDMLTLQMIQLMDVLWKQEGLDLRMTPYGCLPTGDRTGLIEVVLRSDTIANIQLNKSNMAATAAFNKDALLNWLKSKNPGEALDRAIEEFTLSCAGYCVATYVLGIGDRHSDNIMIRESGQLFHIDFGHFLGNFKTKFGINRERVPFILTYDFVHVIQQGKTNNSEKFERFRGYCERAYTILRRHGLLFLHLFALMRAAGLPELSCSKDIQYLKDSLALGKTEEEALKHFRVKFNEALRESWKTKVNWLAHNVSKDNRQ
PI3Kδ, sequence (P27986 whole entry partner, species assumed): as the sequence (P27986 whole entry partner, species assumed) above

SMILES	Ki [1] [nM]	Selectivity (α/δ) [2]	Selectivity (β/δ) [3]	Selectivity (γ/δ) [4]	steatosis (accumulation of fat) in hepatocytes [5]	steatosis development [6]
CC(c1nc2ccsc2c(=O)n1-c1ccccc1)n1cnc2c(N)ncnc21 (stereo not drawn) [3d]	40	1447	126	187	–	–
CC(Nc1ncnc2[nH]cnc12)c1nc2ccsc2c(=O)n1-c1ccccc1 (stereo not drawn) [3e]	6	528	123	28	–	–
Cc1cccc2nc(C(C)n3cnc4c(N)ncnc43)n(-c3ccccc3)c(=O)c12 (stereo not drawn) [4a]	7	2963	119	61	–	–
Cc1cccc2nc(C(C)Nc3ncnc4[nH]cnc34)n(-c3ccccc3)c(=O)c12 (stereo not drawn) [4b]	5	132	29	12	–	–
O=c1cc(N2CCOCC2)oc2c(-c3ccccc3)cccc12 [LY294002]	–	–	–	–	can be inhibited	blocked steatosis development
